Assay results reported in patent US8329751B2, “Compounds having aryl-sulphonamidic structure useful as metalloproteases inhibitors” (Bracco Imaging S.p.A., priority 2007, dated 2012).

Key:
[1] = target: T1, MMP-2 (Homo sapiens, UniProt P08253); assay: MMP inhibition assay, fluorogenic substrate FS-6, MMP-2; type: biochemical; details: substrate FS-6 2 μM; enzyme and inhibitor incubated 4 h at 25° C.
T1 construct: supplied by Prof; Gillian Murphy (Department of Oncology, University of Cambridge, UK); not a commercial purchase
T1 sequence (P08253 110-660): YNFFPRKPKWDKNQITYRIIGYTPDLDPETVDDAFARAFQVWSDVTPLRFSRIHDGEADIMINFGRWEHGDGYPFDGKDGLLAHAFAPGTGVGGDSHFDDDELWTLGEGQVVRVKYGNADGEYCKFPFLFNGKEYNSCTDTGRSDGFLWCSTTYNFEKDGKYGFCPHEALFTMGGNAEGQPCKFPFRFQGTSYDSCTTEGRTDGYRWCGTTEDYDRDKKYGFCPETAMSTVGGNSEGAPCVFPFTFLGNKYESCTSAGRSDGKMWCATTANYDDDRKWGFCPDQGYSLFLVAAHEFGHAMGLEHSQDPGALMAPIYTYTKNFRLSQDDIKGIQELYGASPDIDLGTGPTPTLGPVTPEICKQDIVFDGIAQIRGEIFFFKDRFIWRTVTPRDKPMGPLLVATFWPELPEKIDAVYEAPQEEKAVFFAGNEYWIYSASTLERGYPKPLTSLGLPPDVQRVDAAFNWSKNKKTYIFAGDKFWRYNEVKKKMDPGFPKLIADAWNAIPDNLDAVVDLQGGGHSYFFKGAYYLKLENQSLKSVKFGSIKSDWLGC
Procedure: (§1) As reported therein, the inhibitory activity of the compounds of the invention was evaluated on the known fluorogenic substrate (Mca-Lys-Pro-Leu-Gly-Leu-Dpa-Ala-Arg-NH2), shortly referred to as FS-6 (see, as a reference, U. Neumann, Analytical Biochem. 2004, 328, 166-173).
(§2) Recombinant human pro-MMP-2 was supplied by Prof. Gillian Murphy (Department of Oncology, University of Cambridge, UK), while pro-MMP-13 and pro-MMP-14 were purchased from Calbiochem. […] Pro-MMP-14 was activated with trypsin 5 μg/ml for 15 min at 37° C. followed by soybean trypsin inhibitor (SBTI) 23, μg/ml. For assay measurements, the inhibitor stock solutions (DMSO, 100 mM) were further diluted, at seven different concentrations (0.01 nM-100 μM) for each MMP in the fluorimetric assay buffer (FAB: Tris 50 mM, pH=7.5, NaCl 150 mM, CaCl2 10 mM, Brij 35 0.05% and DMSO 1%). Activated enzyme (final concentration 2.9 nM for MMP-2, 1 nM for MMP-14, 0.33 nM for MMP-13) and inhibitor solutions were incubated in the assay buffer for 4 h at 25° C. After the addition of 200 μM solution of the fluorogenic substrate Mca-Lys-Pro-Leu-Gly-Leu-Dpa-Ala-Arg-NH2 (Bachem) (see, for a reference, Neumann, U.; Kubota, H.; Frei, K.; Ganu, V.; Leppert, D. Anal. Biochem. 2004, 328, 166) for all of the enzymes in DMSO (final concentration 2 μM), the hydrolysis was monitored every 15 sec. for 20 min recording the increase in fluorescence (λex=325 nm, λem=395 nm) using a Molecular Device SpectraMax Gemini XS plate reader.
(§3) The assays were performed in triplicate, in a total volume of 200 μl per well, in 96-well microtitre plates (Corning, black, NBS). Control wells lack inhibitor. The MMP inhibition activity was expressed in relative fluorescent units (RFU). Percent of inhibition was calculated from control reactions without the inhibitor. IC50 was determined using the formula: Vi/Vo=1/(1+[I]/IC50), where V, is the initial velocity of substrate cleavage in the presence of the inhibitor at concentration [I] and Vo is the initial velocity in the absence of the inhibitor. Results were analyzed using SoftMax Pro software and GraFit software.

[2] = target: T2, MMP-14 (Homo sapiens, UniProt P50281); assay: MMP inhibition assay, fluorogenic substrate FS-6, MMP-14; type: biochemical; details: substrate FS-6 2 μM; enzyme and inhibitor incubated 4 h at 25° C.
T2 construct: purchased Calbiochem
Procedure: as §1, §2, §3

[3] = target: MMP-13 (Homo sapiens, UniProt P45452); assay: MMP inhibition assay, fluorogenic substrate FS-6, MMP-13; type: biochemical; details: substrate FS-6 2 μM; enzyme and inhibitor incubated 4 h at 25° C.
Procedure: as §1, §2, §3

[4] = tested on: HUVEC; assay: pro-apoptotic activity on HUVEC; type: cell-based, human
[5] = tested on: HUVEC; assay: HUVEC growth assay (crystal violet); type: cell-based, human
Procedure: (§4) Compound (2), as a representative compound of the invention, was tested in an in vivo assay to evaluate its inhibitory activity on cancer cells. In particular, HUVEC cultures were purchased from Cascade Biologics (Portland, Oreg.) and cultured in gelatin-coated flasks using M199, 10% FCS (Fetal Calf Serum, Seromed, Milan, Italy) supplemented with FGF (Fibroblast Growth Factor, PeproTech, Inc., Rocky Hill, N.J.) (1 μg aFGF (acidic Fibroblast Growth Factor)+1 μg bFGF (basic Fibroblast Growth Factor)/100 ml medium), EGF (Epidermal Growth Factor) (1 μg/100 ml medium), heparin (10 mg/100 ml medium), (ICN Pharmaceuticals, Inc., Casta Mesa, Calif.), hydrocortisone (Sigma Chemical Co.) (0.1 mg/100 ml medium).
At day 0 cells were plated in 96 microwell plates at 1000 cells in 200 μl of complete culture medium. The inhibitor was added to the cells at different concentrations (10, 100 μM). HUVEC were quantified at 24, 48 and 72 hrs. Indirect optical density (OD) quantification was obtained fixing/staining the cells for 20 minutes with a crystal violet solution [see, for a reference, Fassina, G. et al., Clin Cancer Res, (2004) 10, 4865-73].

[6] = tested on: HUVEC; assay: HUVEC chemoinvasion in Boyden chambers; type: cell-based, human; details: 100 μM, 5 hours
Procedure: as §4, with “N.J.) (1 μg aFGF” left out, “[…].),” for “Casta Mesa, Calif.),”, “medium). HUVEC invasion was assessed in Boyden chambers (Costar) using serum-free fibroblast conditioned medium (FB-CM) as chemoattractants. Cells were treated with the inhibitor at the indicated doses and incubated at 37° C. for 5 hours in humidified atmosphere. Cell invasion was assessed by densitometric scanning of whole filter surface. Each test was performed in triplicate and repeated three times [see, for a reference, Albini, A., et al., Int. J. Dev. Biol., (2004), 48, 563-71].” for “medium).”

Compound | IC50 [1] [nM] | IC50 [2] [nM] | IC50 [3] [nM] | induction of programmed cell death ([4]; at 48 hours) | pro-apoptotic activity ([4]; high dose (100 μM)) | cell growth inhibition as compared to untreated controls ([5]; 10 and 100 μM, 24, 48 and 72 hrs) | inhibition at 100 µM ([5]; Homo sapiens, 100 μM, starting from 48 hours of treatment, read-out: cell growth inhibition) [%] | inhibitory activity on endothelial cell migration through a reconstituted basement membrane [6]
CC(C)ON([C@H](CCNC(=O)Cc1ccccc1)C(=O)NO)S(=O)(=O)c1ccc(-c2ccccc2)cc1 [Compound 1e, (R)—N-hydroxy-2-(N-isopropoxybiphenyl-4-ylsulfonamido)-4-(2-phenylacetamido)butanamide] | 1.43 ± 0.1 | 80.7 ± 5.4 | 1.4 ± 0.1 | – | – | – | – | –
CC(C)ON([C@H](CCNC(=O)c1ccccc1)C(=O)NO)S(=O)(=O)c1ccc(-c2ccccc2)cc1 [Compound 1b, (R)—N-(4-(hydroxyamino)-3-(N-isopropoxybiphenyl-4-ylsulfonamido)-4-oxobutyl)benzamide] | 1.48 ± 0.17 | 94 | 4.6 ± 0.1 | – | – | – | – | –
CC(C)ON([C@H](CCNC(=O)OCc1ccccc1)C(=O)NO)S(=O)(=O)c1ccc(-c2ccccc2)cc1 [Reference Compound (5b), reference compound] | 8.4 ± 0.1 | 240 ± 19 | 4.4 ± 0.5 | – | – | – | – | –
CC(C)ON([C@H](CCNS(C)(=O)=O)C(=O)NO)S(=O)(=O)c1ccc(-c2ccccc2)cc1 [Compound 1c, (R)—N-hydroxy-2-(N-isopropoxybiphenyl-4-ylsulfonamido)-4-(methylsulfonamido)butanamide] | 0.98 ± 0.12 | 95.5 ± 4.5 | 2.2 ± 0.3 | – | – | – | – | –
COc1ccc(-c2ccc(S(=O)(=O)N(OC(C)C)[C@H](CCN3C(=O)c4ccccc4C3=O)C(=O)NO)cc2)cc1 [Compound 2, (R)-4-(1,3-dioxoisoindolin-2-yl)-N-hydroxy-2-(N-isopropoxy-4′-methoxybiphenyl-4-ylsulfonamido)butanamide] | 0.67 ± 0.06 | 3.9 ± 0.18 | 0.19 ± 0.01 | ability to induce programmed cell death | some pro-apoptotic activity | time and dose dependent cell growth inhibition | 100 | significant inhibitory activity

Stronger by IC50 [1], values ahead:

IC50 [1] [nM] | IC50 [2] [nM] | IC50 [3] [nM] | Compound | induction of programmed cell death ([4]; at 48 hours) | pro-apoptotic activity ([4]; high dose (100 μM)) | cell growth inhibition as compared to untreated controls ([5]; 10 and 100 μM, 24, 48 and 72 hrs) | inhibition at 100 µM ([5]; Homo sapiens, 100 μM, starting from 48 hours of treatment, read-out: cell growth inhibition) [%] | inhibitory activity on endothelial cell migration through a reconstituted basement membrane [6]
0.33 ± 0.02 | 41.1 ± 1.16 | 0.68 ± 0.1 | CC(=O)NCC[C@H](C(=O)NO)N(OC(C)C)S(=O)(=O)c1ccc(-c2ccccc2)cc1 [Compound 1d, (R)-4-acetamido-N-hydroxy-2-(N-isopropoxybiphenyl-4-ylsulfonamido)butanamide] | – | – | – | – | –
0.3 ± 0.03 | 27 ± 1 | 0.2 ± 0.01 | COc1ccc(-c2ccc(S(=O)(=O)N(OCCOCCN3CCNCC3)[C@H](CCNC(=O)OCc3ccccc3)C(=O)NO)cc2)cc1 [Compound 1j] | – | – | – | – | –
0.37 ± 0.06 | 24.7 ± 2.2 | 0.25 ± 0.02 | COc1ccc(-c2ccc(S(=O)(=O)N(OC(C)C)[C@H](CCNC(=O)Cc3ccccc3)C(=O)NO)cc2)cc1 [Compound 1g, (R)—N-hydroxy-2-(N-isopropoxy-4′-methoxybiphenyl-4-ylsulfonamido)-4-(2-phenylacetamido)butanamide] | – | – | – | – | –
0.13 ± 0.03 | 23.5 ± 2.2 | 0.58 ± 0.04 | COc1ccc(-c2ccc(S(=O)(=O)N(OC(C)C)[C@H](CCNC(C)=O)C(=O)NO)cc2)cc1 [Compound 1f, (R)-4-acetamido-N-hydroxy-2-(N-isopropoxy-4′-methoxybiphenyl-4-ylsulfonamido)butanamide] | – | – | – | – | –
